Series [1] concerns PC-3. Put plainly: Antitumor activity against human PC-3 cells assessed as inhibition of cell proliferation incubated for 72 hrs by MTT assay. It counts as functional, cell-based. Conditions: PC-3, 72 h. In general terms: Tetrazolium assays rely on reduction of a dye to a coloured formazan, in cell work by metabolically active cells.
The test system of a further series is MCF7. In words: Antitumor activity against human MCF7 cells assessed as inhibition of cell proliferation incubated for 72 hrs by MTT assay. It counts as functional, cell-based. As to conditions: MCF7, 72 h.
The test system of another series is HepG2. In words: Antitumor activity against human HepG2 cells assessed as inhibition of cell proliferation incubated for 72 hrs by MTT assay. The class given is functional, cell-based. As to conditions: HepG2, 72 h.
A further series has as its system MGC-803. In words: Antitumor activity against human MGC-803 cells assessed as inhibition of cell proliferation incubated for 72 hrs by MTT assay. It counts as functional, cell-based. Conditions: MGC-803, 72 h.
Another series concerns LNCaP. In words: Antiproliferative activity against human LNCaP cells assessed as inhibition of cell proliferation incubated for 72 hrs by MTT assay. It counts as functional, cell-based.
The next series deals with DU-145. In words: Antiproliferative activity against human DU-145 cells assessed as inhibition of cell proliferation incubated for 72 hrs by MTT assay. It counts as functional, cell-based. Conditions: DU-145, 72 h.
For series [2], the target named is T1, Lysine-specific demethylase 5B (Homo sapiens, UniProt Q9UGL1). In words: Inhibition of KDM5B (unknown origin).
The test system of series [3] is PC-3. In words: Inhibition of PI3K/AKT pathway in human PC-3 cells assessed as decrease in AKT phosphorylation at Ser473 residue at 20 uM by Western blot analysis. The class given is cell-based. On the technique in general: In western blotting, separated proteins are transferred to a membrane and probed.
The test system of series [4] is PC-3. Put plainly: Inhibition of PI3K/AKT pathway in human PC-3 cells assessed as decrease in AKT phosphorylation at Thr308 residue at 20 uM by Western blot analysis. The class given is cell-based.
Series [5] has as its system PC-3. Put plainly: Inhibition of PI3K/AKT pathway in human PC-3 cells assessed as decrease in P110alpha level at 20 uM by Western blot analysis. It counts as cell-based.
In series [6] the test system is PC-3. In words: Inhibition of PI3K/AKT pathway in human PC-3 cells assessed as decrease in P85 level at 20 uM by Western blot analysis. It counts as cell-based.
In series [7] the test system is PC-3. Put plainly: Antitumor activity against human PC-3 cells xenografted in BALB/C nude mice assessed as decrease in tumor volume at 25 to 50 mg/kg, IG administered for 25 days. It counts as functional, organism-based. As to conditions: dose 25-50 mg/kg, time 25.0 day. For orientation: In xenograft studies the graft and the host belong to different species.
Series [8] deals with PC-3. Put plainly: Antitumor activity against human PC-3 cells xenografted in BALB/C nude mice assessed as decrease in tumor weight at 25 mg/kg, IG administered for 25 days. It counts as functional, organism-based. Conditions: time 25.0 day.
A short description of series [9]: Toxicity in BALB/C nude mouse xenografted with human PC-3 cells assessed as effect on body weight at 25 mg/kg, IG administered for 25 days. It counts as organism-based. Conditions: in vivo, po, 600 h, time 25 day.
A short description of series [10]: Toxicity in BALB/C nude mouse xenografted with human PC-3 cells assessed as indistinct prostate tube wall at 25 mg/kg, IG administered for 25 days by H&E staining based analysis. It counts as organism-based. Conditions: in vivo, po, 600 h, time 25 day.
A short description of series [11]: Toxicity in BALB/C nude mouse xenografted with human PC-3 cells assessed as reduction in prostate gland cells at 25 mg/kg, IG administered for 25 days by H&E staining based analysis. It counts as organism-based. As to conditions: in vivo, po, 600 h, time 25 day.
The nature of series [12]: Toxicity in BALB/C nude mouse xenografted with human PC-3 cells assessed as heart damage at 25 mg/kg, IG administered for 25 days by H&E staining based analysis. As to conditions: in vivo, po, 600 h, time 25 day. The class given is organism-based.
Series [13] can be described thus: Toxicity in BALB/C nude mouse xenografted with human PC-3 cells assessed as liver damage at 25 mg/kg, IG administered for 25 days by H&E staining based analysis. The class given is organism-based. As to conditions: in vivo, po, 600 h, time 25 day.
The nature of series [14]: Toxicity in BALB/C nude mouse xenografted with human PC-3 cells assessed as spleen damage at 25 mg/kg, IG administered for 25 days by H&E staining based analysis. The class given is organism-based. As to conditions: in vivo, po, 600 h, time 25 day.
The nature of series [15]: Toxicity in BALB/C nude mouse xenografted with human PC-3 cells assessed as irregular fissures at 25 mg/kg, IG administered for 25 days by H&E staining based analysis. It counts as organism-based. Conditions: in vivo, po, 600 h, time 25 day.
Series [16] is described as follows: Toxicity in BALB/C nude mouse xenografted with human PC-3 cells assessed as decrease in cell density at 25 mg/kg, IG administered for 25 days by H&E staining based analysis. Conditions: in vivo, po, 600 h, time 25 day. It counts as organism-based.
Series [17] deals with T1, Lysine-specific demethylase 5B. In words: Inhibition of KDM5B (unknown origin) at 10 uM relative to control.
Series [18] addresses Lysine-specific histone demethylase 1A (Homo sapiens) (UniProt O60341). Put plainly: Inhibition of LSD1 (unknown origin) at 10 uM relative to control.
Series [19] has as its target S-phase kinase-associated protein 2 (Homo sapiens) (UniProt Q13309). In words: Inhibition of SKP2 (unknown origin) at 10 uM relative to control.
The target in series [20] is Ubiquitin carboxyl-terminal hydrolase 7 (Homo sapiens) (UniProt Q93009). Put plainly: Inhibition of USP7 (unknown origin) at 10 uM relative to control.
Series [21] deals with Bromodomain-containing protein 4 (Homo sapiens) (UniProt O60885). In words: Inhibition of BRD4 (unknown origin) at 10 uM relative to control.
Series [22] addresses T2, Protein deacetylase HDAC6 (Homo sapiens) (UniProt Q9UBN7).
T2 sequence (whole entry): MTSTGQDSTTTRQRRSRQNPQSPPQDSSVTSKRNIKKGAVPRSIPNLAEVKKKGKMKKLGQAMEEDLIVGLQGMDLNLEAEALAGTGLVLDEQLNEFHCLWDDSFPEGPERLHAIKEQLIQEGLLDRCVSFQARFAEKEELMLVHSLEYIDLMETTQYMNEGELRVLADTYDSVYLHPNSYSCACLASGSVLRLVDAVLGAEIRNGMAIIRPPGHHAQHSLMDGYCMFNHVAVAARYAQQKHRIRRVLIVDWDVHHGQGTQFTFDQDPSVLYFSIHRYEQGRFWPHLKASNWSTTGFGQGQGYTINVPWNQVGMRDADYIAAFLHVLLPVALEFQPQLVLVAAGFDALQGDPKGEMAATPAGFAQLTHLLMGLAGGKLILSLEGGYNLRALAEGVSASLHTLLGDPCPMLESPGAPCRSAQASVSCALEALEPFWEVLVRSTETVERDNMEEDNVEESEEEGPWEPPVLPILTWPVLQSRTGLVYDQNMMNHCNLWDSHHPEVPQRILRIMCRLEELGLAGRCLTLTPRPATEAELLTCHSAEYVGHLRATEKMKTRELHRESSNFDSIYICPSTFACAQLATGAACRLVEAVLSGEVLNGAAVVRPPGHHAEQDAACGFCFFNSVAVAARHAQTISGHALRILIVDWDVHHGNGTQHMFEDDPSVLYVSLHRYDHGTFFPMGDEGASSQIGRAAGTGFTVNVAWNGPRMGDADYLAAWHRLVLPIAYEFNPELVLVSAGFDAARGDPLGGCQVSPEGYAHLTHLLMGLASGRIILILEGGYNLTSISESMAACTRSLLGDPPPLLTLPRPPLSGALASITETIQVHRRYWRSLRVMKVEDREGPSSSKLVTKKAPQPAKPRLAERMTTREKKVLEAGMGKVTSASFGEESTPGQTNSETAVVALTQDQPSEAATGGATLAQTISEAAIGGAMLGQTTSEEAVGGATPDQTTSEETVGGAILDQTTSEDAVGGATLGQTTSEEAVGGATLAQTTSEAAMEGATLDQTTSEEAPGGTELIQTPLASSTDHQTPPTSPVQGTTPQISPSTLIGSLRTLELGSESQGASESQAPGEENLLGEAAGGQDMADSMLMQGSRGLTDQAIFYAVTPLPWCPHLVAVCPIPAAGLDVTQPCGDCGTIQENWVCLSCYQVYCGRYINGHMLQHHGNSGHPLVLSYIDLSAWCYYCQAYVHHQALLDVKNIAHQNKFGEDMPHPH
In words: Inhibition of HDAC6 (unknown origin) at 10 uM relative to control.

SMILES strings stand for the structures. Activity calls are given as the source filed them. The calls are words filed in the database; no cut-off is given here. Bounds are passed on as bounds.

T1 sequence (Q9UGL1 whole entry): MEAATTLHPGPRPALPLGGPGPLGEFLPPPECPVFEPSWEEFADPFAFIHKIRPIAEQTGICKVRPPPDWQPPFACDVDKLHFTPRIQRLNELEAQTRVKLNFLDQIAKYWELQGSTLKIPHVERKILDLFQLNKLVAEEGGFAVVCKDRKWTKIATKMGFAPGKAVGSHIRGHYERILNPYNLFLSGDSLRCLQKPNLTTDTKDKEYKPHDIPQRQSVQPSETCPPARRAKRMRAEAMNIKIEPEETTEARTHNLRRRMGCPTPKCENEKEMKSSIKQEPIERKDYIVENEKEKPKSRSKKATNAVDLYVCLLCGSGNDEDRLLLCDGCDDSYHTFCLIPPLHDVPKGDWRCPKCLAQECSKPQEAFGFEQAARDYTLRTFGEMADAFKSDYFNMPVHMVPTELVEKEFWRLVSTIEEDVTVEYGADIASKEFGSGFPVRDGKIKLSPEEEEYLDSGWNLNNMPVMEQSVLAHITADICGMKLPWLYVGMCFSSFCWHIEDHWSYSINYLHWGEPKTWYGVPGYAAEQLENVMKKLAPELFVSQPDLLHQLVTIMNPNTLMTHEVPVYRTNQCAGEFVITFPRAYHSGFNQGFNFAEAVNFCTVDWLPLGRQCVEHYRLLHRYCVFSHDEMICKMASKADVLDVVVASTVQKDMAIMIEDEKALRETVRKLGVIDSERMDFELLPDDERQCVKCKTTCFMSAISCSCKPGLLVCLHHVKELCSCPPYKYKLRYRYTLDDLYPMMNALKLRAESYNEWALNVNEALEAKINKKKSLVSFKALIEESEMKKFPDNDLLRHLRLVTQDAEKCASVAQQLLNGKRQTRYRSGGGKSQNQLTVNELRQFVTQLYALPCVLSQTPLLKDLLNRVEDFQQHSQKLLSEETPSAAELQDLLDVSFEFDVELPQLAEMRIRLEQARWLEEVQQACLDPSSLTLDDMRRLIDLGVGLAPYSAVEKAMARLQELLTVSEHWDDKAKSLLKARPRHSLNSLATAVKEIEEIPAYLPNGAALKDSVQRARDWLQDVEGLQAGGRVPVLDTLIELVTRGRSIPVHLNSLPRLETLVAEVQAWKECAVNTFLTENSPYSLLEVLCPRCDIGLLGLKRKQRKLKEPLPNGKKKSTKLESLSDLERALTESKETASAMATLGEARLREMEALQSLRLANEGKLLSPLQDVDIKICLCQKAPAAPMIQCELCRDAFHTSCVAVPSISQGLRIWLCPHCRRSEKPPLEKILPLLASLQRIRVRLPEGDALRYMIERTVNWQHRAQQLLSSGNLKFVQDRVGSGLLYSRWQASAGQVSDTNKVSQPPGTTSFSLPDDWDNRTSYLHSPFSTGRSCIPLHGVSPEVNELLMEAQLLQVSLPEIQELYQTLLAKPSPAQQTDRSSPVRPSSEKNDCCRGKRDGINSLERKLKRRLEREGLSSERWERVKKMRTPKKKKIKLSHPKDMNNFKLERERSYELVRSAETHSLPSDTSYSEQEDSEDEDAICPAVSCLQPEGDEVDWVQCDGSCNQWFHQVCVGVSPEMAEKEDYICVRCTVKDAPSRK
Chain of S-phase kinase-associated protein 2 (Homo sapiens) (Q13309 whole entry): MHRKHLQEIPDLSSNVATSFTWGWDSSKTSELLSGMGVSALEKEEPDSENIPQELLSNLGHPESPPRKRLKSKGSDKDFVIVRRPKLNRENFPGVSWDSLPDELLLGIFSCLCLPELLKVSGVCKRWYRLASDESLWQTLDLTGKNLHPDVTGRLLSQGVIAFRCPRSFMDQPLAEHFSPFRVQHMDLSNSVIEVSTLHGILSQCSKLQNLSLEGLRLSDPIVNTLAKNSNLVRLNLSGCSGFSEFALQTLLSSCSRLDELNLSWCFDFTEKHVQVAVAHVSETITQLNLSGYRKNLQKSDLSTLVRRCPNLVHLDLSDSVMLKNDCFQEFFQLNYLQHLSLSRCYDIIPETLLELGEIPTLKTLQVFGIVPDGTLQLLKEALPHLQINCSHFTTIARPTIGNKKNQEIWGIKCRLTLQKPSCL
Chain of Ubiquitin carboxyl-terminal hydrolase 7 (Homo sapiens) (Q93009 whole entry, looked up): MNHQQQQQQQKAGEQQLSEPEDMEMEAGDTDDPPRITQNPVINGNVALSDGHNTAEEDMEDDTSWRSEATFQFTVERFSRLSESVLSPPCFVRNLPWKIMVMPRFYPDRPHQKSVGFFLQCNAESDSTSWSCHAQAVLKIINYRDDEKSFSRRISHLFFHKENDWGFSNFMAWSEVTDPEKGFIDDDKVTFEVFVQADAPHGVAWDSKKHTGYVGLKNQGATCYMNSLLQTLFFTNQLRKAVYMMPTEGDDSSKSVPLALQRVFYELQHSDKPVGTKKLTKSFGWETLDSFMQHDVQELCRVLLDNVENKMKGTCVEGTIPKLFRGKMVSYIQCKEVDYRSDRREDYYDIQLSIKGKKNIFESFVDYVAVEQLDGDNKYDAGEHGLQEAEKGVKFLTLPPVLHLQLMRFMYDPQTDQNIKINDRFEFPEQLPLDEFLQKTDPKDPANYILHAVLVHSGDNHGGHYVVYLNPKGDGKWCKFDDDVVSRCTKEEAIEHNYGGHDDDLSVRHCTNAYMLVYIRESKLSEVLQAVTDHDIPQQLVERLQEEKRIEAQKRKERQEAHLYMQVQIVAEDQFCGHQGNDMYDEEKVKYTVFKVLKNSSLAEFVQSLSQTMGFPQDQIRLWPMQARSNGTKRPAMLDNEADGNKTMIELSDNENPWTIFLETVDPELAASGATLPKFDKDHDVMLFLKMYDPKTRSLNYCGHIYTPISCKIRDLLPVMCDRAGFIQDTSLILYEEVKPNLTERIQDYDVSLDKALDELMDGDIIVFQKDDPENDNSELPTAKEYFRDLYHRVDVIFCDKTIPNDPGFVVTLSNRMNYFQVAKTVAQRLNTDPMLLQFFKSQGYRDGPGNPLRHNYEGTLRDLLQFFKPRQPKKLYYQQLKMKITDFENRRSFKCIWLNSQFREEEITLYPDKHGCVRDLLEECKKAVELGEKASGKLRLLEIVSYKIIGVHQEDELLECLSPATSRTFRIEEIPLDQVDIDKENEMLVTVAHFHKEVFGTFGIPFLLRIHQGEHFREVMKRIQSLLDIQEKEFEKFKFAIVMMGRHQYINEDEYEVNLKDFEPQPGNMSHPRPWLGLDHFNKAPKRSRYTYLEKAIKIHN

Consider `O=C(O)CCNc1cc(N2CCc3ccccc3CC2)nc(-c2ccccn2)n1`, for which the IC50 is 20.3 µM with PC-3 [1], 33.7 µM in the series with MCF7, 39.8 µM with HepG2 and 29.3 µM with MGC-803.
As for `O=c1[nH]cc(F)c(=O)[nH]1` [FLUOROURACIL], the IC50 in the series on PC-3 [1] came to 8.41 µM; in the series with MCF7, 15.1 µM; with MGC-803, 10.1 µM; with LNCaP it was 7.93 µM; in the series on DU-145, 8.58 µM.
As for `CC(C)c1c(-c2ccccc2)[nH]c2c(C#N)cnn2c1=O`, the IC50 came out at 0.011 µM in series [2]; 26.7 µM in the series with PC-3 [1]; 35.4 µM in the series on MCF7; 42.6 µM in the series on HepG2; 33.7 µM in the series on MGC-803; 29.6 µM in the series on LNCaP. For the same molecule, the IC50 in the series with DU-145 was determined as 35.9 µM. In addition, the inhibition result in the series on PC-3 [3], in the series on PC-3 [4], with PC-3 [5] and in the series with PC-3 [6] was “Active” each time.
As to `COc1cccc2c1C(=O)c1c(O)c3c(c(O)c1C2=O)C[C@@](O)(C(=O)CO)C[C@@H]3O[C@H]1C[C@H](N)[C@H](O)[C@H](C)O1` [DOXORUBICIN], the outcome with PC-3 [7] and in the series with PC-3 [8] was Active. In addition, the Activity result in [9], in [10], in series [11], in series [12], in series [13] and in series [14] was “Toxic” throughout. The Activity result in [15] and in series [16] was “Toxic” throughout.
Consider `Cc1ccc(-n2ncc3c(C(=O)Nc4cccnc4)cc(-c4ccc5ccccc5c4)nc32)cc1`, for which the IC50 in [2] was over 10 µM. Also, the inhibition in [17] is -3%.
For `Cc1ccc(-n2ncc3c(C(=O)NCCN4CCCCC4)cc(-c4ccc5ccccc5c4)nc32)cc1` the same measures were over 10 µM and 40%.
For `CN1CCN(CCNC(=O)c2cc(-c3ccc4ccccc4c3)nc3c2cnn3-c2ccc(C(F)(F)F)cc2)CC1` the same measures were over 10 µM and 33%.
`CC(C)n1ncc2c(C(=O)NCc3cn(Cc4ccccc4)nn3)cccc21`: the inhibition in series [18] amounted to 31%; in series [19], 11%; in [20], 16%; in [17], 56%; in series [21], 9%; in series [22] it was 27%.
Molecule `CCc1ccc(-c2cc(C(=O)NCCN3CCN(C)CC3)c3cnn(-c4ccccc4)c3n2)cc1` returned a 50% inhibitory concentration (IC50) in [2] of 0.376 µM. Further, the inhibition in series [17] is 83%.
The like results for `CC(C)c1ccc(-n2ncc3c(C(=O)NCCN4CCN(C)CC4)cc(-c4ccc5ccccc5c4)nc32)cc1` were, in that order, 3.08 µM and 86%.
The like results for `O=C(NCc1cn(Cc2ccccc2)nn1)c1cc(-c2ccc3ccccc3c2)nc2c1cnn2-c1ccc(C(F)(F)F)cc1` were, in that order, 6.27 µM and 63%.

A word on the IC50: it is the concentration that gives 50% inhibition. Usually inhibition stands for the relative decrease from the control value, in per cent.

Source of the values: ChEMBL document CHEMBL5346927, “Discovery of a novel 1H-pyrazole- [3,4-b] pyridine-based lysine demethylase 5B inhibitor with potential anti-prostate cancer activity that perturbs the phosphoinositide 3-kinase/AKT pathway” (Eur J Med Chem, 2023).
